These results are taken from ChEMBL document CHEMBL1201862, “PubChem BioAssay data set” (2004).

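Test compounds were applied to cells in 96-well plates for 48 hours at 5 doses. GI50 = concentration required for 50% inhibition of growth.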 Calls of active or inactive are those of the source. Rule as the data show it: active = GI50 up to about 1.1 µM and inactive = higher.

Common to all, as to assay: growth of human tumour cells (NCI), 48 h
Test [1] deals with 786-0.
Test [2] has as its system ACHN.
In test [3] the test system is CAKI-1.
Test [4] concerns COLO 205.
Test [5] concerns HCT-116.
Test [6] concerns HL-60.
Test [7] has as its system KM12.
The subject of test [8] is MCF7.
Test [9] relates to MOLT-4.
In test [10] the test system is Malme-3M.
Test [11] relates to NCI-H460.
Test [12] relates to NCI/ADR-RES.
The test system of test [13] is SF-268.
Test [14] deals with SK-MEL-5.
For test [15], the system named is SR.
The test system of test [16] is SW-620.
For test [17], the system named is T47D.
In test [18] the test system is U-251.
For test [19], the system named is UACC-62.
Test [20] deals with UO-31.

Take `Cc1c2oc3c(C)cc(F)c(C(=O)NC4C(=O)NC(C(C)C)C(=O)N5CCCC5C(=O)N(C)CC(=O)N(C)C(C(C)C)C(=O)OC4C)c3nc-2c(C(=O)NC2C(=O)NC(C(C)C)C(=O)N3CCCC3C(=O)N(C)CC(=O)N(C)C(C(C)C)C(=O)OC2C)c(N)c1=O` (stereo not given): the GI50 was 0.00512 µM (active) in [1]; 0.0832 µM (active) in test [2]; 2.45 µM (inactive) in test [3]; 0.0267 µM (active) in test [4]; 0.01 µM (active) in [5]; 0.00131 µM (active) in [6]. In addition, the GI50 in test [7] was 0.00475 µM (active); in test [8], < 0.001 µM (active); in test [9] it was < 0.001 µM (active); in test [10], 0.00149 µM (active); in [11] it was 0.00179 µM (active); in test [12], 4.65 µM (inactive). Besides, the GI50 in test [13] is < 0.001 µM (active); in [14], 0.0142 µM (active); in test [15], < 0.001 µM (active); in [16] it was 0.00114 µM (active); in [17], 0.101 µM (active); in test [18], 0.00588 µM (active). In addition, the GI50 in test [19] was 0.0617 µM (active); in test [20], 0.521 µM (active).
Regarding `CC(=O)O[C@@H](c1nccn1Cc1ccccc1)[C@H]1OC(C)(C)O[C@@H]1[C@H]1COC(C)(C)O1`, the GI50 in test [1], in test [2], in test [3], in [4], in test [5] and in test [6] was > 100 µM (inactive) throughout. In addition, the GI50 in [7], in test [8], in test [9], in test [10], in test [11] and in test [12] was > 100 µM (inactive) each time. Besides, the GI50 in test [13] was > 100 µM (inactive); in test [14] it was > 100 µM (inactive); in [15], > 10 µM (inactive); in [16], > 100 µM (inactive); in test [17], > 10 µM (inactive); in [18] it was > 100 µM (inactive). In addition, the GI50 in test [19] and in test [20] was > 100 µM (inactive) throughout.
`Cc1ccnc2c1c(=O)c1ccccc1n2C`: the GI50 in [1] is 53.6 µM (inactive); in [2], 27.7 µM (inactive); in test [3], 22.1 µM (inactive); in test [4], 39 µM (inactive); in test [5] it was 39.4 µM (inactive); in test [6], 34.2 µM (inactive). Moreover, the GI50 in test [7] is 50.7 µM (inactive); in test [8], 32.9 µM (inactive); in test [9], 23.9 µM (inactive); in [10] it was 29.6 µM (inactive); in [11], 13.1 µM (inactive); in [12], 40.6 µM (inactive). For the same molecule, the GI50 in [13] is 28 µM (inactive); in [14], 18.7 µM (inactive); in [15] it was 44.9 µM (inactive); in [16] it was 35.5 µM (inactive); in [17], 38.9 µM (inactive); in test [18], 39.8 µM (inactive). For the same molecule, the GI50 in test [19] was 16.2 µM (inactive); in test [20], 12.9 µM (inactive).
For `O=C(CSc1nc2ccc(I)cc2c(=O)n1Cc1ccccc1)NN1C(=O)c2ccccc2C1=O`, the GI50 was 6.04 µM (inactive) in [1]; 18.9 µM (inactive) in test [2]; 9.23 µM (inactive) in test [3]; 25.5 µM (inactive) in test [4]; 16.7 µM (inactive) in test [5]; 16.7 µM (inactive) in test [6]. Besides, the GI50 in test [7] was 31.2 µM (inactive); in test [8], 23.3 µM (inactive); in test [9], 28.4 µM (inactive); in [10] it was 18.2 µM (inactive); in test [11], 22.9 µM (inactive); in test [12], 15.5 µM (inactive). Moreover, the GI50 in test [13] was 8.85 µM (inactive); in test [14], 18.1 µM (inactive); in [15], 25.7 µM (inactive); in [16] it was 27.5 µM (inactive); in [17] it was 15.8 µM (inactive); in test [18] it was 12.7 µM (inactive). The GI50 in test [19] is 24.9 µM (inactive); in test [20] it was 2.37 µM (inactive).
As for `COc1ccc2c(c1OC(C)=O)C1=CC(=O)CCC13CCNC3C2` (stereo not given), the GI50 in [1], in test [2], in test [3], in test [4], in test [5] and in test [6] was > 100 µM (inactive) each time. Further, the GI50 in [7], in test [8], in test [9], in test [10], in test [11] and in [12] was > 100 µM (inactive) throughout. For the same molecule, the GI50 in test [13], in test [14], in [15], in test [16], in test [17] and in test [18] was > 100 µM (inactive) throughout. The GI50 in [19] and in test [20] was > 100 µM (inactive) each time.
On to `COC(=O)C(CCC(=O)CCl)N1C(=O)c2ccccc2C1=O` (stereo not given), for which the GI50 in [1] was 4.05 µM (inactive); in [2], 13.3 µM (inactive); in test [3], 15.2 µM (inactive); in [4], 15.6 µM (inactive); in test [5], 5.07 µM (inactive); in test [6] it was 2.53 µM (inactive). In addition, the GI50 was 20.2 µM (inactive) in test [7]; 4.57 µM (inactive) in test [8]; 2.38 µM (inactive) in test [9]; 4.57 µM (inactive) in test [10]; 12.2 µM (inactive) in test [11]; 9.42 µM (inactive) in [12]. Moreover, the GI50 in test [13] is 9.42 µM (inactive); in test [14], 4.95 µM (inactive); in test [15] it was 3.39 µM (inactive); in test [16], 3.62 µM (inactive); in test [17], 6.25 µM (inactive); in test [18] it was 14.4 µM (inactive). Further, the GI50 in [19] is 10.8 µM (inactive); in test [20] it was 14.4 µM (inactive).
In the case of `COc1c(C(=O)O)cccc1-c1cccc(C(=O)NCCN(CCNC(=O)c2cccc(-c3cccc(C(=O)O)c3OC)c2OC)CCNC(=O)c2cccc(-c3cccc(C(=O)O)c3OC)c2OC)c1OC`, the GI50 in test [1] was 31.6 µM (inactive); in [2], 50.5 µM (inactive); in [3], 51.6 µM (inactive); in test [4], 20.2 µM (inactive); in test [5], 33.4 µM (inactive); in [6] it was 18.2 µM (inactive). Further, the GI50 in test [7] was 18.6 µM (inactive); in test [8] it was 37.8 µM (inactive); in test [9] it was 36.7 µM (inactive); in test [10] it was 23.4 µM (inactive); in test [11], 25.4 µM (inactive); in test [12] it was > 100 µM (inactive). In addition, the GI50 in [13] is 74.8 µM (inactive); in [14] it was 4.84 µM (inactive); in test [15], 10.7 µM (inactive); in [16] it was 29.6 µM (inactive); in test [17], 43 µM (inactive); in [18], 28.5 µM (inactive). Besides, the GI50 in test [19] is 25.8 µM (inactive); in test [20], > 100 µM (inactive).
For `CCOC1=C(c2ccccc2)N2CCCCC2O1` (stereo not given), the GI50 was 4.55 µM (inactive) in test [1]; 4.68 µM (inactive) in test [2]; 26.5 µM (inactive) in test [3]; 2.22 µM (inactive) in test [4]; 2.88 µM (inactive) in test [5]; 1.5 µM (inactive) in [6]. Besides, the GI50 in test [7] is 3.27 µM (inactive); in test [8], 3.76 µM (inactive); in [9] it was 4.27 µM (inactive); in [10], 5.7 µM (inactive); in test [11] it was 3.39 µM (inactive); in [12], 23.7 µM (inactive). For the same molecule, the GI50 is 4.34 µM (inactive) in test [13]; 1.7 µM (inactive) in test [14]; 3.71 µM (inactive) in test [15]; 4.21 µM (inactive) in [16]; 2.04 µM (inactive) in test [17]; 3.35 µM (inactive) in test [18]. The values for the GI50 in test [19] and in [20] were 3.48 µM (inactive) and 19.8 µM (inactive), respectively.
On to `NC(=O)c1ncn(C2OC(CO)C(O)C2O)c1NC=O` (stereo not given), for which the GI50 in [1], in [2], in test [3], in test [4], in test [5] and in test [6] was > 100 µM (inactive) each time. The GI50 in test [7], in test [8], in test [9], in [10], in [11] and in test [12] was > 100 µM (inactive) throughout. The GI50 in test [13], in test [14], in [15], in test [16], in [17] and in [18] was > 100 µM (inactive) each time. Besides, the GI50 in test [19] and in test [20] was > 100 µM (inactive) in each case.
Regarding `O=[N+]([O-])c1ccc(C(Nc2ccccc2)c2ccc3cccnc3c2O)cc1` (stereo not given), the GI50 in test [1] was 4.37 µM (inactive); in [2], 5.61 µM (inactive); in test [3], 6.25 µM (inactive); in test [4], 12.2 µM (inactive); in test [5], 7.8 µM (inactive); in [6] it was 3.37 µM (inactive). Also, the GI50 in test [7] was 7.94 µM (inactive); in test [8], 4.83 µM (inactive); in test [9], 0.423 µM (active); in test [10], 14.7 µM (inactive); in test [11], 3.24 µM (inactive); in test [12], 3.67 µM (inactive). Also, the GI50 was 4.46 µM (inactive) in test [13]; 7.18 µM (inactive) in test [14]; 0.474 µM (active) in test [15]; 6.27 µM (inactive) in [16]; 5.25 µM (inactive) in test [17]; 3.55 µM (inactive) in test [18]. The GI50 in [19] was 12.9 µM (inactive); in test [20] it was 6.78 µM (inactive).
